Assay [1] deals with IL-6 secretion by M1 macrophages derived from THP-1. Kind of assay: IL-6 secretion by LPS-activated THP-1-derived M1 macrophages (cytometric bead array). In kind it is cell-based, human. As to conditions: LPS 10 ng/mL 6 hours, compound 1 μM or 10 μM, FIG. 3. Here is the method:
IL-6 is one of the pro-inflammatory cytokines secreted by activated macrophages, M1 macrophages, and is a potent trigger of fibrosis. Therefore, to evaluate the inhibitory activity of the compounds according to the present invention to inhibit pulmonary fibrosis through the inhibition of inflammatory effects, the extent of IL-6 secretion by macrophages after treatment of activated macrophages with the compounds was compared.
First, macrophages were prepared through the following process: 1 mL of a medium containing 5×10^5 cells/mL of THP-1 cells (Korean Cell Line Bank; KCLB NO. 40202) grown in a complete medium (a medium in which Roswell Park Memorial Institute [RPMI] is supplemented with 10% [vol/vol] fetal bovine serum [FBS] and 1% [vol/vol] penicillin/streptomycin [P/S]) was dispensed by 1 mL into each well of a 12-well plate. […]
Subsequently, the measurement of a cytokine level was performed through the following process: the secured complete medium was centrifuged at 13,000 RPM for 10 minutes in a 4° C. centrifuge, and then a supernatant was transferred to a new 1.5 mL microcentrifuge tube. […] The amount of IL-6 binding to the beads was measured using a Novocyte 3000 flow cytometer (Agilent).

A further assay has as its system F-actin in MRC5 cells. Kind of assay: inhibition of F-actin formation in TGF-β1-treated MRC5 cells (confocal imaging). As to conditions: MRC5, compound 10 μM, TGF-β1 5 ng/mL, 70 hours; FIGS. 2C, 2D. In kind it is cell-based, human. Here is the method: (§1) It is known that when the process of pulmonary fibrosis results in structural changes in cells, the level of F-actin increases. Therefore, to confirm the therapeutic efficacy of the compounds of the present invention for pulmonary fibrosis-related diseases, the structural changes of cells after treating fibrosis-induced MRC5 with the compounds of the present invention were measured by the degree of inhibition of F-actin and α-SMA formation.
(§2) Specifically, MRC5 cells were treated with Compound 32 (10 μM) or Compound 42 (10 μM) according to the present invention, CK-666 (actin polymerization inhibitor, 10 μM), nintedanib (1 μM), or DMSO, which had been dissolved in a 0.5% fetal bovine serum (FBS)-containing medium, and 2 hours later, the cells were treated with TGF-β1 (5 ng/mL) to cause fibrosis. Due to strong cytotoxicity of the drug of nintedanib, all cells die when treated with nintedanib at the same concentration (10 μM) as that of the compound of the present invention, so it is impossible to conduct a comparative experiment. Therefore, the effect was confirmed by treating the cells with 1 μM nintedanib. 70 hours later, the cells were fixed with a 2% paraformaldehyde solution for 10 minutes, treated with a 0.1% Triton X-100 solution for 10 minutes to provide cell membrane permeability, and treated with a 1% bovine serum albumin (BSA) solution to prevent non-specific binding. […] High-resolution F-actin images acquired with a STELLARIS 5 confocal microscope (Leica) were quantitatively represented by standardizing F-actin stained with rhodamine phalloidin using Alexa Fluor™ Plus 488-labeled GAPDH using self-developed analysis software through programming. […] High-resolution α-SMA images acquired with a STELLARIS 5 confocal microscope (Leica) were quantitatively represented by standardizing α-SMA stained with an anti-α-SMA-FITC antibody with Alexa Fluor™ Plus 488-labeled GAPDH using self-developed analysis software through programming.

The subject of the next assay is α-SMA in MRC5 cells. Kind of assay: inhibition of α-SMA formation in TGF-β1-treated MRC5 cells (confocal imaging). In kind it is cell-based, human. As to conditions: MRC5, compound 10 μM, TGF-β1 5 ng/mL, 70 hours; FIGS. 2A, 2B. Here is the method:
as §1, §2

Assay [2] relates to α-SMA expression in MRC5 cells. Kind of assay: inhibition of α-SMA expression in MRC5 cells, image screening method. In kind it is cell-based. As to conditions: Homo sapiens; MRC5, compound 10 μM, TGF-β1 5 ng/mL, 72 hours, relative to TGF-β1 alone; read-out: Inhibitory activity (α-SMA expression inhibition). The procedure, abridged: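 MRC5 cells exposed to compound (10 μM) or DMSO with TGF-β1 (5 ng/mL) for 72 h, then fixed, permeabilised, blocked and immunostained for α-SMA (FITC) and GAPDH. Image-based quantitation; α-SMA level with compound plus TGF-β1 expressed relative to TGF-β1 alone.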

For assay [3] the following is noted: clinical use as therapeutic drug for pulmonary fibrosis; cited from earlier work.

For the compound `CC(C)CN1CCC(NC(=O)N2CCN(c3ccc(F)cc3)c3cc(F)ccc32)CC1` [Compound 32, 6-fluoro-4-(4-fluorophenyl)-N-(1-isobutylpiperidin-4-yl)-3,4-dihydroquinoxaline-1(2H)-carboxamide], the IL-6 production entry in assay [1] is listed as “decrease”. Also, the “intracellular F-actin formation” value with F-actin in MRC5 cells is “decreased to a level similar to that in the group not treated with TGF-β1”. Also, the “intracellular α-SMA formation” value with α-SMA in MRC5 cells is “decreased to a level similar to that in the group not treated with TGF-β1”. Also, the inhibition at 10 µM in assay [2] was at least 70%.
Turning to `CC(C)N1CC(NC(=O)N2CCN(c3ccc(F)cc3)c3cc(F)ccc32)C1` [Compound 42, 6-fluoro-4-(4-fluorophenyl)-N-(1-isopropylazetidin-3-yl)-3,4-dihydroquinoxaline-1(2H)-carboxamide], the IL-6 production result in assay [1] is on record as “decrease”. Moreover, the “intracellular F-actin formation” value with F-actin in MRC5 cells is “decreased to a level similar to that in the group not treated with TGF-β1”. For the same compound, the “intracellular α-SMA formation” value with α-SMA in MRC5 cells is recorded as “decreased to a level similar to that in the group not treated with TGF-β1”. Further, in assay [2], the inhibition at 10 µM was in the range of 50 to 70%.
Turning to `O=C(NC1CCNCC1)N1CCN(Cc2ccc(F)cc2)c2ccccc21` [Compound 93, 4-(4-fluorobenzyl)-N-(piperidin-4-yl)-3,4-dihydroquinoxaline-1(2H)-carboxamide], the inhibition at 10 µM in assay [2] lay in the range of 50 to 70%.
On the same count and under the same terms, for `O=C(N[C@@H]1CCNC1)N1CCN(Cc2ccc(Cl)cc2)c2ccccc21` [Compound 95, (R)-4-(4-chlorobenzyl)-N-(pyrrolidin-3-yl)-3,4-dihydroquinoxaline-1(2H)-carboxamide] the value was at least 70%; for `CC(C)CN[C@H]1CCN(C(=O)N2CCN(Cc3ccccn3)c3ccccc32)C1` [Compound 96, (S)-(3-(isobutylamino)pyrrolidin-1-yl)(4-(pyridin-2-ylmethyl)-3,4-dihydroquinoxalin-1(2H)-yl)methanone], 30 to 50%; for `CN(C)[C@H]1CCN(C(=O)N2CCN(Cc3ccccn3)c3ccccc32)C1` [Compound 97, (S)-(3-(dimethylamino)pyrrolidin-1-yl)(4-(pyridin-2-ylmethyl)-3,4-dihydroquinoxalin-1(2H)-yl)methanone], 10 to 30%.
Still for that read-out and setting: for `O=C(N[C@@H]1CCOC1)N1CCN(Cc2ccccn2)c2ccccc21` [Compound 98, (R)-4-(pyridin-2-ylmethyl)-N-(tetrahydrofuran-3-yl)-3,4-dihydroquinoxaline-1(2H)-carboxamide] the value was 30 to 50%; for `O=C(NC1COC1)N1CCN(Cc2ccccn2)c2ccccc21` [Compound 99, N-(oxetan-3-yl)-4-(pyridin-2-ylmethyl)-3,4-dihydroquinoxaline-1(2H)-carboxamide], 30 to 50%; for `O=C(NCC1CCOC1)N1CCN(Cc2ccccn2)c2ccccc21` (stereo not drawn) [Compound 100, 4-(pyridin-2-ylmethyl)-N-((tetrahydrofuran-3-yl)methyl)-3,4-dihydroquinoxaline-1(2H)-carboxamide], 30 to 50%.
Regarding `O=C(NCC1CCOCC1)N1CCN(Cc2ccccn2)c2ccccc21` [Compound 101, 4-(pyridin-2-ylmethyl)-N-((tetrahydro-2H-pyran-4-yl)methyl)-3,4-dihydroquinoxaline-1(2H)-carboxamide], in assay [2], the inhibition at 10 µM lay within 30 to 50%.
Still for that read-out and setting: for `O=C(NCC1CC1)N1CCN(Cc2ccccn2)c2ccccc21` [Compound 102, N-(cyclopropylmethyl)-4-(pyridin-2-ylmethyl)-3,4-dihydroquinoxaline-1(2H)-carboxamide] the value was 30 to 50%; for `O=C(N[C@@H]1CCNC1)N1CCN(C2CCCCC2)c2ccccc21` [Compound 104, (R)-4-cyclohexyl-N-(pyrrolidin-3-yl)-3,4-dihydroquinoxaline-1(2H)-carboxamide], 10 to 30%.
Same read-out and setting: then `CC(C)CN1CC[C@@H](NC(=O)N2CCN(C3CCCCC3)c3ccccc32)C1` [Compound 106, (R)-4-cyclohexyl-N-(1-isobutylpyrrolidin-3-yl)-3,4-dihydroquinoxaline-1(2H)-carboxamide], with 30 to 50%; and `CN1CCN(C(=O)N2CCN(C3CCCCC3)c3ccccc32)CC1` [Compound 107, (4-cyclohexyl-3,4-dihydroquinoxalin-1(2H)-yl)(4-methylpiperazin-1-yl)methanone], with 10 to 30%; and `O=C(N1CCCC1)N1CCN(C2CCCCC2)c2ccccc21` [Compound 108, (4-cyclohexyl-3,4-dihydroquinoxalin-1(2H)-yl)(pyrrolidin-1-yl)methanone], with 30 to 50%.
With `O=C(N1CCCCC1)N1CCN(C2CCCCC2)c2ccccc21` [Compound 109, (4-cyclohexyl-3,4-dihydroquinoxalin-1(2H)-yl)(piperidin-1-yl)methanone], the inhibition at 10 µM in assay [2] lay within 30 to 50%.
Take `O=C(NCC1CCNCC1)N1CCN(C(=O)c2ccccc2)c2ccccc21` [Compound 114, 4-benzoyl-N-(piperidin-4-ylmethyl)-3,4-dihydroquinoxaline-1(2H)-carboxamide]: the inhibition at 10 µM in assay [2] was 10 to 30%.
Turning to `CC(C)CC(=O)N1CCN(C(=O)NCC2CCNCC2)c2ccccc21` [Compound 125, 4-(3-methylbutanoyl)-N-(piperidin-4-ylmethyl)-3,4-dihydroquinoxaline-1(2H)-carboxamide], the inhibition at 10 µM in assay [2] lay in the range of 10 to 30%.
Same read-out and setting: for `CC(C)(C)CC(=O)N1CCN(C(=O)NC[C@@H]2CCNC2)c2ccccc21` [Compound 129, (R)-4-(3,3-dimethylbutanoyl)-N-(pyrrolidin-3-ylmethyl)-3,4-dihydroquinoxaline-1(2H)-carboxamide] the value was 10 to 30%.
Consider `CC(C)(C)CC(=O)N1CCN(C(=O)NCC2CCNCC2)c2ccccc21` [Compound 130, 4-(3,3-dimethylbutanoyl)-N-(piperidin-4-ylmethyl)-3,4-dihydroquinoxaline-1(2H)-carboxamide], for which the inhibition at 10 µM in assay [2] lay in the range of 10 to 30%.
On to `Cc1ccc(=O)n(-c2ccccc2)c1` [Pirfenidone], for which the lung function improvement entry in assay [3] is reported as “about 10%”.

Values taken from US20260265189A1, “NOVEL COMPOUND, AND PHARMACEUTICAL COMPOSITION COMPRISING SAME AS ACTIVE INGREDIENT” (SAPIENSBIO INC., priority 2022, published 2026).
